Results on 13 compounds are retold here after patent US7064139B2, “Method for treating retroviral infections” (Uniroyal Chemical Company, Inc., priority 2001, dated 2006).

Each structure is given as a SMILES string. Converted amounts (≈) assume the structure as drawn.

The subject of the first assay is HIV-1 (IIIB). In words: microbe, parasite or virus in culture. The class given is cell-based. Conditions: CEM cells, syncytium formation, day four post infection. An excerpt: (§1) The cell type used to determine activity of the compounds of the invention herein, i.e., the test compounds, against HIV was human T-lymphoblast (CEM) cells obtained from the American Tissue Cell Culture Collection (Rockville, Md.). HIV-1 (IIIB) was originally obtained from the culture of persistently HIV-1 infected H9 cells and was provided by R. C. Gallo and M. Popovic (National Cancer Institute, National Institutes of Health, Bethesda, Md.). HIV-2 (ROD) was originally obtained from L. M. Montagnier (Pasteur Institute, Paris, France).
(§2) To determine the antiviral activity of the test compounds, CEM cells were suspended at a cell density of approximately 300,000 cells per ml of culture medium and infected with approximately 100 CCID50 (100 CCID50 being the 50% cell culture infective dose) of HIV-1 (IIIB) or HIV-2 (ROD)). Then 100 μl of the infected cell suspensions was added to 200 μl micro titer plate wells containing 100 μl of appropriate serial (5-fold) dilutions of the test compounds. The inhibitory effect of the test compounds on HIV-1 or HIV-2 syncytium formation in CEM cells was examined microscopically on day four post infection.
(§3) In these cases, the percent protection of the cells against virus-induced cytopathicity by the test compounds at the indicated compound concentration in the previous column is given.
`O=S(=O)(Cc1ccccc1Oc1ccccc1)c1cccc[n+]1[O-]` [Compound 56]: the “EC50 (ug/ml) HIV-1” value worked out at 5.30 µg/mL (≈ 15.5 µM).

Turning to `O=S(=O)(Cc1cc2c(cc1Cl)OCO2)c1cccc[n+]1[O-]` [Compound 21], the “EC50 (ug/ml) HIV-1” value is 11.70 µg/mL (≈ 35.7 µM).

For the compound `Cc1ccc(C)c(C(C)S(=O)(=O)c2c(Cl)ccc[n+]2[O-])c1` (racemic) [Compound 124], the “EC50 (ug/ml) HIV-1” value is “>.8 µg/mL”.

Take `Cc1ccc(C)c(C(C)S(=O)(=O)c2cc(C)cc(C)[n+]2[O-])c1` (stereo not drawn) [Compound 81]: the “EC50 (ug/ml) HIV-1” value was “≧20 ug/ml”.

Take `O=S(=O)(Cc1cccc2ccccc12)c1cccc[n+]1[O-]` [Compound 13]: the “EC50 (ug/ml) HIV-1” value worked out at 6.50 µg/mL (≈ 21.7 µM).

For `O=[N+]([O-])c1ccc(CS(=O)(=O)c2cccc[n+]2[O-])cc1` [Compound 14], the “EC50 (ug/ml) HIV-1” value is more than 4 µg/mL.

For the compound `COc1cc(C=C(C#N)Sc2cccc[n+]2[O-])cc(OC)c1OC` [Compound 160], the “EC50 (ug/ml) HIV-1” value is more than 20 µg/mL.

On to `COc1ccc(C)cc1CSc1cccc[n+]1[O-]` [Compound 93], for which the “EC50 (ug/ml) HIV-1” value stood at 8.00 µg/mL (≈ 30.6 µM).

Take `O=S(=O)(Cc1cccc(Br)c1)c1cccc[n+]1[O-]` [Compound 38]: the “EC50 (ug/ml) HIV-1” value amounted to 2.50 µg/mL (≈ 7.62 µM).

`O=S(=O)(Cc1cccs1)c1cccc[n+]1[O-]` [Compound 8]: the “EC50 (ug/ml) HIV-1” value was more than 20 µg/mL.

`CC(C)c1ccc(C(C)C)c(C[S+]([O-])c2cccc[n+]2[O-])c1` (stereo not drawn) [Compound 95]: the “EC50 (ug/ml) HIV-1” value was more than 4 µg/mL.

As for `N#Cc1ccc(CS(=O)(=O)c2cccc[n+]2[O-])cc1` [Compound 34], the “EC50 (ug/ml) HIV-1” value is 9.00 µg/mL (≈ 32.8 µM).

For the compound `Cc1cccc(CS(=O)(=O)c2cccc[n+]2[O-])c1` [Compound 27], the “EC50 (ug/ml) HIV-1” value was determined as 2.40 µg/mL (≈ 9.11 µM).

Still in this assay, the particulars now being: protection of CEM cells against virus-induced cytopathicity at the concentration in the previous column.
For `Cc1ccc(C)c(C(C)S(=O)(=O)c2c(Cl)ccc[n+]2[O-])c1` (racemic) [Compound 124], the “HIV-1 % Protection” value was found to be 0.0%.

Take `Cc1ccc(C)c(C(C)S(=O)(=O)c2cc(C)cc(C)[n+]2[O-])c1` (stereo not drawn) [Compound 81]: the “HIV-1 % Protection” value turned out to be 37.5%.

With `O=[N+]([O-])c1ccc(CS(=O)(=O)c2cccc[n+]2[O-])cc1` [Compound 14], the “HIV-1 % Protection” value is listed as 0.0%.

Take `COc1cc(C=C(C#N)Sc2cccc[n+]2[O-])cc(OC)c1OC` [Compound 160]: the “HIV-1 % Protection” value came to 0.0%.

Take `O=S(=O)(Cc1cccs1)c1cccc[n+]1[O-]` [Compound 8]: the “HIV-1 % Protection” value is given as 0.0%.

The next assay deals with HIV-2 (ROD). Put plainly: Inhibition of HIV-2 syncytium formation in CEM cells. The class given is cell-based. Conditions: CEM cells, syncytium formation, day four post infection.
From the text: as §1, §2, §3
Regarding `O=S(=O)(Cc1ccccc1Oc1ccccc1)c1cccc[n+]1[O-]` [Compound 56], the “EC50 (ug/ml) HIV-2” value came to 4.7 µg/mL (≈ 13.8 µM).

In the case of `O=S(=O)(Cc1cc2c(cc1Cl)OCO2)c1cccc[n+]1[O-]` [Compound 21], the “EC50 (ug/ml) HIV-2” value was 6.3 µg/mL (≈ 19.2 µM).

Turning to `Cc1ccc(C)c(C(C)S(=O)(=O)c2c(Cl)ccc[n+]2[O-])c1` (racemic) [Compound 124], the “EC50 (ug/ml) HIV-2” value is more than 0.80 µg/mL.

As to `Cc1ccc(C)c(C(C)S(=O)(=O)c2cc(C)cc(C)[n+]2[O-])c1` (stereo not drawn) [Compound 81], the “EC50 (ug/ml) HIV-2” value was more than 20.0 µg/mL.

Regarding `O=S(=O)(Cc1cccc2ccccc12)c1cccc[n+]1[O-]` [Compound 13], the “EC50 (ug/ml) HIV-2” value worked out at 6.0 µg/mL (≈ 20 µM).

For `O=[N+]([O-])c1ccc(CS(=O)(=O)c2cccc[n+]2[O-])cc1` [Compound 14], the “EC50 (ug/ml) HIV-2” value is more than 4 µg/mL.

With `COc1cc(C=C(C#N)Sc2cccc[n+]2[O-])cc(OC)c1OC` [Compound 160], the “EC50 (ug/ml) HIV-2” value was more than 20 µg/mL.

As to `COc1ccc(C)cc1CSc1cccc[n+]1[O-]` [Compound 93], the “EC50 (ug/ml) HIV-2” value is given as “≧20 ug/ml”.

As to `O=S(=O)(Cc1cccc(Br)c1)c1cccc[n+]1[O-]` [Compound 38], the “EC50 (ug/ml) HIV-2” value is recorded as “≧4 ug/ml”.

`O=S(=O)(Cc1cccs1)c1cccc[n+]1[O-]` [Compound 8]: the “EC50 (ug/ml) HIV-2” value is more than 20 µg/mL.

`CC(C)c1ccc(C(C)C)c(C[S+]([O-])c2cccc[n+]2[O-])c1` (stereo not drawn) [Compound 95]: the “EC50 (ug/ml) HIV-2” value was “≧4 ug/ml”.

In the case of `N#Cc1ccc(CS(=O)(=O)c2cccc[n+]2[O-])cc1` [Compound 34], the “EC50 (ug/ml) HIV-2” value was found to be 10.0 µg/mL (≈ 36.5 µM).

Consider `Cc1cccc(CS(=O)(=O)c2cccc[n+]2[O-])c1` [Compound 27], for which the “EC50 (ug/ml) HIV-2” value is 9.0 µg/mL (≈ 34.2 µM).

The same assay, now with this note: protection of CEM cells against virus-induced cytopathicity at the concentration in the previous column.
`Cc1ccc(C)c(C(C)S(=O)(=O)c2c(Cl)ccc[n+]2[O-])c1` (racemic) [Compound 124]: the “HIV-2 % Protection” value amounted to 0.0%.

Take `Cc1ccc(C)c(C(C)S(=O)(=O)c2cc(C)cc(C)[n+]2[O-])c1` (stereo not drawn) [Compound 81]: the “HIV-2 % Protection” value is recorded as 0.0%.

With `O=[N+]([O-])c1ccc(CS(=O)(=O)c2cccc[n+]2[O-])cc1` [Compound 14], the “HIV-2 % Protection” value was determined as 25.0%.

Turning to `COc1cc(C=C(C#N)Sc2cccc[n+]2[O-])cc(OC)c1OC` [Compound 160], the “HIV-2 % Protection” value was found to be 0.0%.

For `COc1ccc(C)cc1CSc1cccc[n+]1[O-]` [Compound 93], the “HIV-2 % Protection” value was determined as 37.5%.

Turning to `O=S(=O)(Cc1cccc(Br)c1)c1cccc[n+]1[O-]` [Compound 38], the “HIV-2 % Protection” value was 37.5%.

As to `O=S(=O)(Cc1cccs1)c1cccc[n+]1[O-]` [Compound 8], the “HIV-2 % Protection” value came to 0.0%.

For `CC(C)c1ccc(C(C)C)c(C[S+]([O-])c2cccc[n+]2[O-])c1` (stereo not drawn) [Compound 95], the “HIV-2 % Protection” value is listed as 37.5%.

In another assay the test system is Davis strain CMV. Put plainly: Reduction of CMV-induced cytopathicity in HEL cells. The class given is cell-based, human cytomegalovirus (HCMV). Conditions: HEL cells, estimate of percent protection at the concentration in the previous column. How it is done: Confluent HEL cells grown in […] microtiter plates were inoculated with CMV at an input of 100 PFU (plaque forming units) per well. After a one to two hour incubation period, residual virus was removed and the infected cells were further incubated with MEM (Minimal Essential Medium) (supplemented with 2% inactivated Fetal Calf Serum (FCS), […], and 0.3% sodium bicarbonate) containing varying concentrations of the test compounds. Antiviral activity was expressed as EC50 (50% effective concentration), or test compound concentration required to reduce virus-induced cytopathicity after seven days by 50% compared to the untreated control.
In some cases, the compounds had considerable cytotoxicity against HEL cells, which made determination of the EC50 difficult. In these cases, an estimate of the percent protection at the compound concentration indicated in the previous columns is given.
Take `O=S(=O)(Cc1ccccc1Oc1ccccc1)c1cccc[n+]1[O-]` [Compound 56]: the “Antiviral % Inhibition Davis strain CMV” value is recorded as 20.0%.

Regarding `Cc1ccc(C)c(C(C)S(=O)(=O)c2c(Cl)ccc[n+]2[O-])c1` (racemic) [Compound 124], the “Antiviral % Inhibition Davis strain CMV” value is 10.0%.

With `O=S(=O)(Cc1cccc2ccccc12)c1cccc[n+]1[O-]` [Compound 13], the “Antiviral % Inhibition Davis strain CMV” value is 20.0%.

Turning to `COc1ccc(C)cc1CSc1cccc[n+]1[O-]` [Compound 93], the “Antiviral % Inhibition Davis strain CMV” value is given as 0.0%.

Turning to `N#Cc1ccc(CS(=O)(=O)c2cccc[n+]2[O-])cc1` [Compound 34], the “Antiviral % Inhibition Davis strain CMV” value is 10.0%.

Staying with this assay, now noted: HEL cells, virus-induced cytopathicity after seven days.
Turning to `O=S(=O)(Cc1ccccc1Oc1ccccc1)c1cccc[n+]1[O-]` [Compound 56], the “Antiviral EC50 (ug/ml) Davis strain CMV” value was more than 5 µg/mL.

For the compound `O=S(=O)(Cc1cc2c(cc1Cl)OCO2)c1cccc[n+]1[O-]` [Compound 21], the “Antiviral EC50 (ug/ml) Davis strain CMV” value came out at 10.0 µg/mL.

As for `Cc1ccc(C)c(C(C)S(=O)(=O)c2c(Cl)ccc[n+]2[O-])c1` (racemic) [Compound 124], the “Antiviral EC50 (ug/ml) Davis strain CMV” value was more than 5 µg/mL.

Consider `Cc1ccc(C)c(C(C)S(=O)(=O)c2cc(C)cc(C)[n+]2[O-])c1` (stereo not drawn) [Compound 81], for which the “Antiviral EC50 (ug/ml) Davis strain CMV” value turned out to be 8.6 µg/mL.

As to `O=S(=O)(Cc1cccc2ccccc12)c1cccc[n+]1[O-]` [Compound 13], the “Antiviral EC50 (ug/ml) Davis strain CMV” value was more than 5 µg/mL.

As to `O=[N+]([O-])c1ccc(CS(=O)(=O)c2cccc[n+]2[O-])cc1` [Compound 14], the “Antiviral EC50 (ug/ml) Davis strain CMV” value was found to be 7.0 µg/mL.

Consider `COc1cc(C=C(C#N)Sc2cccc[n+]2[O-])cc(OC)c1OC` [Compound 160], for which the “Antiviral EC50 (ug/ml) Davis strain CMV” value turned out to be 7.0 µg/mL.

Turning to `COc1ccc(C)cc1CSc1cccc[n+]1[O-]` [Compound 93], the “Antiviral EC50 (ug/ml) Davis strain CMV” value was more than 50 µg/mL.

For the compound `O=S(=O)(Cc1cccc(Br)c1)c1cccc[n+]1[O-]` [Compound 38], the “Antiviral EC50 (ug/ml) Davis strain CMV” value worked out at 5.0 µg/mL.

On to `O=S(=O)(Cc1cccs1)c1cccc[n+]1[O-]` [Compound 8], for which the “Antiviral EC50 (ug/ml) Davis strain CMV” value turned out to be 11.0 µg/mL.

Regarding `CC(C)c1ccc(C(C)C)c(C[S+]([O-])c2cccc[n+]2[O-])c1` (stereo not drawn) [Compound 95], the “Antiviral EC50 (ug/ml) Davis strain CMV” value turned out to be 4.1 µg/mL.

In the case of `N#Cc1ccc(CS(=O)(=O)c2cccc[n+]2[O-])cc1` [Compound 34], the “Antiviral EC50 (ug/ml) Davis strain CMV” value is more than 20 µg/mL.

For `Cc1cccc(CS(=O)(=O)c2cccc[n+]2[O-])c1` [Compound 27], the “Antiviral EC50 (ug/ml) Davis strain CMV” value was 16.0 µg/mL.
